Consider 20 compounds from US9000159B2 (Glenmark Pharmaceuticals, S.A., priority 2009, dated 2015).

The target of this experiment is T1, Human TRPA1 (Homo sapiens, UniProt O75762).
T1 construct: expressed in transfected cells; host or cells: CHO cells
Put plainly: 45Calcium uptake assay: inhibition of AITC induced cellular uptake of radioactive calcium. Format: cell-based. Conditions: AITC (30 μM) induced 45Ca uptake, Human TRPA1 expressing CHO cells; for inhibition at 1 µM: 1.0 μM test compound, read-out: Percentage inhibition at 1.0 μM; for inhibition at 10 µM: 10.0 μM test compound, read-out: Percentage inhibition at 10.0 μM; for IC50: read-out: Human IC50 value (range). From the text:
The illustrative examples of the present invention are screened for TRPA1 activity according to a modified procedure described in (a) Tóth, A. et al., Life Sciences, 2003, 73, 487-498. (b) McNamara C, R. et al., Proc. Natl. Acad. Sci. U.S.A., 2007, 104, 13525-13530. The screening of the compounds can be carried out by other methods and procedures known to persons skilled in the art.
Screening for TRPA1 Antagonist Using the ^45Calcium Uptake Assay
The inhibition of TRPA1 receptor activation was measured as inhibition of allyl isothiocyanate (AITC) induced cellular uptake of radioactive calcium. Test compounds were dissolved in DMSO to prepare 10 mM stock solution and then diluted using plain medium with 0.1% BSA and 1.8 mM CaCl2 to get desired concentration. Final concentration of DMSO in the reaction was 0.5% (v/v). Human TRPA1 expressing CHO cells were grown in F-12 DMEM medium with 10% FBS, 1% penicillin-streptomycin solution, 400 μg/ml of G-418. Cells were seeded 24 h prior to the assay in 96 well plates so as to get ˜50,000 cells per well on the day of experiment. Cells were treated with test compounds for 10 min followed by addition of AITC at a final concentration of 30 μM and 5 μCi/ml ^45Ca^+2 for 3 min. Cells were washed and lysed using buffer containing 1% Triton X-100, 0.1% deoxycholate and 0.1% SDS. Radioactivity in the lysate was measured in Packard Top count after addition of liquid scintillant. Concentration response curves were plotted as a % of maximal response obtained in the absence of test antagonist. IC50 value was calculated from concentration response curve by nonlinear regression analysis using GraphPad PRISM software.

T1 sequence (O75762 whole entry): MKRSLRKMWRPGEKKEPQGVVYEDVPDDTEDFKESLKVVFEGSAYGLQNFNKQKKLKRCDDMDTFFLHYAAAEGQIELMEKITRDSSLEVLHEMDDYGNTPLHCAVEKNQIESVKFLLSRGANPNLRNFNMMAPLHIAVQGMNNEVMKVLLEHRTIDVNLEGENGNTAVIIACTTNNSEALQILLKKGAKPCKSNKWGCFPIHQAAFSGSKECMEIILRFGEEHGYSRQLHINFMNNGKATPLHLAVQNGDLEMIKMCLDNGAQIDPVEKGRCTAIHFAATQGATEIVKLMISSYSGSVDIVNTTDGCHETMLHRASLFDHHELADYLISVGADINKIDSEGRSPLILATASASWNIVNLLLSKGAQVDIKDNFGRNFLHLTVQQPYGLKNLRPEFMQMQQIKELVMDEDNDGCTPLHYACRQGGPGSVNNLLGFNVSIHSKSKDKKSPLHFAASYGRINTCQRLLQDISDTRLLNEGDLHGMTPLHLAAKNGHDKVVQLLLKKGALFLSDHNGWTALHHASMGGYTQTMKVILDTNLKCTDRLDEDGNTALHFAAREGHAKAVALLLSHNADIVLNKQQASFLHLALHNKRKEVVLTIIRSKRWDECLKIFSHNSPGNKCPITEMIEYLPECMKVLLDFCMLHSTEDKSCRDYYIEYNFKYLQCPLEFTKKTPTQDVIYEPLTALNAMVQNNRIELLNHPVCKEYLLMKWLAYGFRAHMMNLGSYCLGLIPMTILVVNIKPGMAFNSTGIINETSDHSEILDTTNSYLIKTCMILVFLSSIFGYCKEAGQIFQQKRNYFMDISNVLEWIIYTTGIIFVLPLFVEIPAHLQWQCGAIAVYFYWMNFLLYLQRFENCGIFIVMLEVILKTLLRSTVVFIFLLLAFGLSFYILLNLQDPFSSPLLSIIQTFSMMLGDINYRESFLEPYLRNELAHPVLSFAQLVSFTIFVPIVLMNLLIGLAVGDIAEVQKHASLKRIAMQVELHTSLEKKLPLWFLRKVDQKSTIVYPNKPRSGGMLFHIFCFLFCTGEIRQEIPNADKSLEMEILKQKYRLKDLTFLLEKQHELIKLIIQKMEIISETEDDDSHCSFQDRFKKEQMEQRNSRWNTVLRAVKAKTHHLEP

Regarding `Cn1c(=O)c2c(ccn2CC(=O)Nc2nc(-c3cc(F)c(OCC4CCC4)c(F)c3)cs2)n(C)c1=O` [Example 18, 2-(1,3-Dimethyl-2,4-dioxo-1,2,3,4-tetrahydro-5H-pyrrolo[3,2-d]pyrimidin-5-yl)-N-{4-[4-(cyclobutylmethoxy)-3,5-difluorophenyl]-1,3-thiazol-2-yl}acetamide], the inhibition at 1 µM came to 38.4% and the inhibition at 10 µM was 38.7%.

Take `Cn1c(=O)c2c(ccn2CC(=O)Nc2nc(-c3cc(Cl)c(OCC4CCC4)c(Cl)c3)cs2)n(C)c1=O` [Example 19, 2-(1,3-Dimethyl-2,4-dioxo-1,2,3,4-tetrahydro-5H-pyrrolo[3,2-d]pyrimidin-5-yl)-N-{4-[4-(cyclobutylmethoxy)-3,5-dichlorophenyl]-1,3-thiazol-2-yl}acetamide]: the inhibition at 1 µM came to 72.1% and the inhibition at 10 µM came out at 76.9%.

Regarding `Cc1nn(CC(=O)Nc2nc(-c3cc(F)c(OCC(C)(C)C)c(F)c3)cs2)c2c(=O)n(C)c(=O)n(C)c12` [Example 82, N-[4-(3,5-Difluoro-4-(2,2-dimethylpropoxy)phenyl)-1,3-thiazol-2-yl]-2-(3,4,6-trimethyl-5,7-dioxo-4,5,6,7-tetrahydro-1H-pyrazolo[4,3-d]pyrimidin-1-yl)acetamide], the inhibition at 1 µM worked out at 92.8%, the inhibition at 10 µM came out at 99% and the 50% inhibitory concentration (IC50) was in the range of 50 to 100 nM.

On to `Cn1c(=O)c2c(cnn2CC(=O)Nc2cc(-c3ccc(Br)cc3)on2)n(C)c1=O` [Example 84, N-[5-(4-Bromophenyl)isoxazol-3-yl]-2-(4,6-dimethyl-5,7-dioxo-4,5,6,7,-tetrahydro-1H-pyrazolo[4,3-d]pyrimidin-1-yl)acetamide], for which the inhibition at 1 µM is 17.2% and the inhibition at 10 µM is 83.9%.

Consider `Cn1nc2c(c1CC(=O)Nc1nc(-c3cc(F)cc(C(F)(F)F)c3)cs1)c(=O)n(C)c(=O)n2C` [Example 58, N-{4-[3-Fluoro-5-(trifluoromethyl)phenyl]-1,3-thiazol-2-yl}-2-(2,5,7-trimethyl-4,6-dioxo-4,5,6,7-tetrahydro-2H-pyrazolo[3,4-d]pyrimidin-3-yl)acetamide], for which the inhibition at 1 µM worked out at 94.6%, the inhibition at 10 µM was 99.2% and the IC50 was less than 50 nM.

For `Cn1c(=O)c2c(cnn2CC(=O)Nc2nc(-c3ccc(Cl)cc3)cs2)n(C)c1=O` [Example 67, N-[4-(4-Chlorophenyl)-1,3-thiazol-2-yl]-2-(4,6-dimethyl-5,7-dioxo-4,5,6,7-tetrahydro-1H-pyrazolo[4,3-d]pyrimidin-1-yl)acetamide], the inhibition at 1 µM was found to be 57.6% and the inhibition at 10 µM stood at 98.4%.

With `Cc1nn(CC(=O)Nc2nc(-c3cc(Cl)c(OCC(C)(C)C)c(Cl)c3)cs2)c2c(=O)n(C)c(=O)n(C)c12` [Example 83, N-[4-(3,5-Dichloro-4-(2,2-dimethylpropoxy)phenyl)-1,3-thiazol-2-yl]-2-(3,4,6-trimethyl-5,7-dioxo-4,5,6,7-tetrahydro-1H-pyrazolo[4,3-d]pyrimidin-1-yl)acetamide], the inhibition at 1 µM worked out at 75.6%, the inhibition at 10 µM stood at 95% and the IC50 was less than 50 nM.

Take `Cn1c(=O)c2c(CC(=O)Nc3nc(-c4cc(F)c(OCC(F)(F)F)c(F)c4)cs3)cn(C)c2n(C)c1=O` [Example 44, N-{4-[3,5-Difluoro-4-(2,2,2-trifluoroethoxy)phenyl]-1,3-thiazol-2-yl}-2-(1,3,7-trimethyl-2,4-dioxo-2,3,4,7-tetrahydro-1H-pyrrolo[2,3-d]pyrimidin-5-yl)acetamide]: the inhibition at 1 µM was determined as 27.1% and the inhibition at 10 µM is 77%.

Regarding `Cc1cc2c(c(=O)n(C)c(=O)n2C)n1CC(=O)Nc1nc(-c2cc(F)c(OCC(C)(C)C)c(Cl)c2)cs1` [Example 28], the inhibition at 1 µM came out at 99.5%, the inhibition at 10 µM came to 99.7% and the 50% inhibitory concentration (IC50) was less than 50 nM.

For the compound `Cn1c(=O)c2c(ccn2CC(=O)Nc2nc(-c3ccc(F)c(C(F)(F)F)c3)cs2)n(C)c1=O` [Example 2, 2-(1,3-Dimethyl-2,4-dioxo-1,2,3,4-tetrahydro-5H-pyrrolo[3,2-d]pyrimidin-5-yl)-N-{4-[4-fluoro-3-(trifluoromethyl)phenyl]-1,3-thiazol-2-yl}acetamide], the inhibition at 1 µM came out at 35.4% and the inhibition at 10 µM amounted to 79.5%.

Regarding `Cn1c(=O)c2c(ccn2CC(=O)Nc2nc(-c3cc(Cl)c(OCCC(F)(F)C(F)(F)F)c(Cl)c3)cs2)n(C)c1=O` [Example 15, N-{4-[3,5-Dichloro-4-(3,3,4,4,4-pentafluorobutoxy)phenyl]-1,3-thiazol-2-yl}-2-(1,3-dimethyl-2,4-dioxo-1,2,3,4-tetrahydro-5H-pyrrolo[3,2-d]pyrimidin-5-yl)acetamide], the inhibition at 1 µM was 76.5%, the inhibition at 10 µM was determined as 92.5% and the IC50 lay in the range of 50 to 100 nM.

`Cn1nc2c(c1CC(=O)Nc1cc(-c3ccc(Br)cc3)on1)c(=O)n(C)c(=O)n2C` [Example 65, N-[5-(4-Bromophenyl)isoxazol-3-yl]-2-(2,5,7-trimethyl-4,6-dioxo-4,5,6,7-tetrahydro-2H-pyrazolo[3,4-d]pyrimidin-3-yl)acetamide]: the inhibition at 1 µM is 12.5% and the inhibition at 10 µM came out at 24.6%.

Consider `Cn1nc2c(c1CC(=O)Nc1nc(-c3ccc(C(F)(F)F)cc3)cs1)c(=O)n(C)c(=O)n2C` [Example 47, N-{4-[4-(Trifluoromethyl)phenyl]-1,3-thiazol-2-yl}-2-(2,5,7-trimethyl-4,6-dioxo-4,5,6,7-tetrahydro-2H-pyrazolo[3,4-d]pyrimidin-3-yl)acetamide], for which the inhibition at 1 µM came out at 99%, the inhibition at 10 µM amounted to 99.5% and the IC50 is less than 50 nM.

For `Cn1nc2c(c1CC(=O)Nc1nc(-c3ccc(C(F)(F)F)cc3F)cs1)c(=O)n(C)c(=O)n2C` [Example 56, N-{4-[2-Fluoro-4-(trifluoromethyl)phenyl]-1,3-thiazol-2-yl}-2-(2,5,7-trimethyl-4,6-dioxo-4,5,6,7-tetrahydro-2H-pyrazolo[3,4-d]pyrimidin-3-yl)acetamide], the inhibition at 1 µM was 96.2%, the inhibition at 10 µM is 98.2% and the IC50 was less than 50 nM.

With `Cn1c(=O)c2c(cnn2CC(=O)Nc2nc(-c3cc(Cl)c(OCC(C)(C)C)c(Cl)c3)cs2)n(C)c1=O` [Example 79, N-{4-[3,5-Dichloro-4-(2,2-dimethylpropoxy)phenyl]-1,3-thiazol-2-yl}-2-(4,6-dimethyl-5,7-dioxo-4,5,6,7-tetrahydro-1H-pyrazolo[4,3-d]pyrimidin-1-yl)acetamide], the inhibition at 1 µM was 100%, the inhibition at 10 µM stood at 100% and the IC50 was less than 50 nM.

As to `Cn1nc2c(c1CC(=O)Nc1nc(-c3cc(C(F)(F)F)ccc3F)cs1)c(=O)n(C)c(=O)n2C` [Example 57, N-{4-[2-Fluoro-5-(trifluoromethyl)phenyl]-1,3-thiazol-2-yl}-2-(2,5,7-trimethyl-4,6-dioxo-4,5,6,7-tetrahydro-2H-pyrazolo[3,4-d]pyrimidin-3-yl)acetamide], the inhibition at 1 µM worked out at 43% and the inhibition at 10 µM was 49.8%.

`Cn1nc2c(c1CC(=O)Nc1nc3cc(OC(F)(F)F)ccc3s1)c(=O)n(C)c(=O)n2C` [Example 66, N-[5-(Trifluoromethoxy)-1,3-benzothiazol-2-yl]-2-(2,5,7-trimethyl-4,6-dioxo-4,5,6,7-tetrahydro-2H-pyrazolo[3,4-d]pyrimidin-3-yl)acetamide]: the inhibition at 1 µM is 45% and the inhibition at 10 µM was 71.5%.

Turning to `CC(C)CCOc1c(F)cc(-c2csc(NC(=O)Cn3ncc4c3c(=O)n(C)c(=O)n4C)n2)cc1F` [Example 76, N-{4-[3,5-Difluoro-4-(3-methylbutoxy)phenyl]-1,3-thiazol-2-yl}-2-(4,6-dimethyl-5,7-dioxo-4,5,6,7-tetrahydro-1H-pyrazolo[4,3-d]pyrimidin-1-yl)acetamide], the inhibition at 1 µM turned out to be 84.3%, the inhibition at 10 µM is 95.6% and the IC50 is more than 100 nM.

Consider `Cn1c(=O)c2c(CC(=O)Nc3nc(-c4cc(F)c(OCC(C)(C)C)c(F)c4)cs3)cn(C)c2n(C)c1=O` [Example 42, N-[4-(3,5-Difluoro-4-(2,2-dimethylpropoxy)phenyl)-1,3-thiazol-2-yl]-2-(1,3,7-trimethyl-2,4-dioxo-2,3,4,7-tetrahydro-1H-pyrrolo[2,3-d]pyrimidin-5-yl)acetamide], for which the inhibition at 1 µM stood at 41.1% and the inhibition at 10 µM is 63.1%.

Regarding `CC(C)COc1c(F)cc(-c2csc(NC(=O)Cn3ncc4c3c(=O)n(C)c(=O)n4C)n2)cc1F` [Example 74, N-[4-(3,5-Difluoro-4-isobutoxyphenyl)-1,3-thiazol-2-yl]-2-(4,6-dimethyl-5,7-dioxo-4,5,6,7-tetrahydro-1H-pyrazolo[4,3-d]pyrimidin-1-yl)acetamide], the inhibition at 1 µM was 92.1%, the inhibition at 10 µM is 98.8% and the concentration for half-maximal inhibition (IC50) is less than 50 nM.

One may read the inhibition as the change of the read-out against control, counted positive when it falls. One may read the IC50 as the concentration that gives 50% inhibition.
